According to patent US20260137820A1, “TRIFUNCTIONAL COMPOUND AND USE THEREOF” (PEKING UNIVERSITY, priority 2022, published 2026):

Assays:
HT-1080-FAP cells = assay: Determination of IC50 in cell experiment (competition with ^68Ga-FAPI-04); type: cell-based; settings: Homo sapiens; vs 0.75 nM ^68Ga-FAPI-04, 37° C., 1 hour
Description: Cell model: A human fibrosarcoma cell line (HT-1080-FAP) with high FAP expression was constructed by transfection of an FAP plasmid into a human fibrosarcoma cell line (HT-1080) by WuXi Biologics (China).
HT-1080-FAP cells were inoculated into a 24-well plate 24 hours in advance, with the density being about 30% (calculated and estimated), 10^5 cells (countable) per well. 0.5 mL of a complete medium was added. The medium was changed to a serum-free medium. 12 groups of FAPI-CB-01 solutions with a concentration gradient of 0-5000 nM were set up, with internal replicates n=4 for each group. […] 0.75 nM ^68Ga-FAPI-04 was added to each well, followed by incubation at 37° C. for 1 hour. After washing twice with cold PBS and lysis, the radioactivity count was measured.

HT-1080-FAP tumor = assay: PET/CT imaging in HT-1080-FAP tumor-bearing mouse model; type: in vivo; settings: ^68Ga label, 18.5 MBq via tail vein, p<0.005
Description: Mouse model: Nu/Nu mice (SPF grade) were purchased from Beijing Charles River Laboratories (China) and injected subcutaneously with HT-1080-FAP cells to construct a tumor model with high FAP expression.
All PET/CT scans were carried out on Mediso nanoScan® PET 122S small animal PET/CT.
After a certain number of HT-1080-FAP tumor mice were taken and injected via the tail vein with 7.4-18.5 MBq of ^68Ga/^86Y-FAPI-04 (control) and ^68Ga/^86Y-FAPI-CB series molecules at specified time points (Note: the injection of the control and investigation molecules was separated apart by at least five half-lives of the nuclide to ensure that the radioactivity of the previous probe had almost completely decayed and was essentially completely metabolized), imaging was carried out at specified time points. In some examples, the mice were anesthetized and then sacrificed by neck breaking at a certain time point. Organs were dissected and taken for radioactivity measurement.
A ^68Ge-^68Ga generator was eluted with 5 mL of 0.6 M high-purity hydrochloric acid to obtain a Ga-68 hydrochloric acid solution. 1 mL of the Ga-68 solution after elution was taken, and 100 μL of 3 M sodium hydroxide and 130 μL of 3M sodium acetate were added to adjust the acidity to a final pH of 4.0. 12 μg of FAPI-CB-00 compound was added, and the reaction mixture was heated to 70° C. and maintained for 20 min. […]

For `N#C[C@@H]1CC(F)(F)CN1C(=O)CNC(=O)c1ccnc2ccc(OCCCN3CCN(C(=O)[C@H](CCCCNC(=O)c4ccc(OS(=O)(=O)F)cc4)NC(=O)CN4CCN(CC(=O)O)CCN(CC(=O)O)CCN(CC(=O)O)CC4)CC3)cc12` [FAPI-CB-01], the IC50 (HT-1080-FAP cells) was 0.0116 ± 0.00032 µM and the “improvement of maximum standard tumor uptake value (SUVmax) compared with FAPI-04” value (HT-1080-FAP tumor) was “about 2 times”.
